The NIST ThermoML archive (doi:10.1021/je900525f)

Test: xn = mol fraction of the nth substance listed
Conditions: 101 kPa, Liquid; for viscosity: Capillary tube (Ostwald / Ubbelohde) method; for speed of sound: Pulse-echo method

CCOC(=O)CCl [ethyl chloroethanoate] + N#CCc1ccccc1
Conditions | mass density, 303.15 K [kg/m3] | mass density, 308.15 K [kg/m3] | mass density, 313.15 K [kg/m3] | speed of sound, 303.15 K [m/s] | speed of sound, 308.15 K [m/s] | speed of sound, 313.15 K [m/s] | viscosity, 303.15 K [mPa·s] | viscosity, 308.15 K [mPa·s] | viscosity, 313.15 K [mPa·s]
x2 = 0 | 1139.3 | 1132.5 | 1125.9 | 1229.4 | 1212.4 | 1197.6 | 0.9692 | 0.8979 | 0.8341
x2 = 0.0205 | 1135.8 | 1129.8 | 1123.2 | 1235.7 | 1218.9 | 1204 | 0.9824 | 0.9115 | 0.8463
x2 = 0.1376 | 1119.2 | 1114.3 | 1107.6 | 1268.8 | 1254 | 1240.4 | 1.069 | 0.9906 | 0.9164
x2 = 0.2585 | 1102.6 | 1098.5 | 1091.7 | 1303.2 | 1291.5 | 1279 | 1.161 | 1.072 | 0.9925
x2 = 0.3793 | 1086.4 | 1083.3 | 1076.2 | 1338.7 | 1328.4 | 1316.6 | 1.254 | 1.155 | 1.07
x2 = 0.4843 | 1072.6 | 1069.8 | 1062.8 | 1370.5 | 1361.6 | 1348.5 | 1.336 | 1.229 | 1.139
x2 = 0.5875 | 1059.3 | 1056.4 | 1049.8 | 1400.6 | 1388.9 | 1381 | 1.419 | 1.302 | 1.207
x2 = 0.7152 | 1043.2 | 1040 | 1034 | 1438.2 | 1426.3 | 1419.9 | 1.523 | 1.394 | 1.292
x2 = 0.8434 | 1027.5 | 1023.7 | 1018.3 | 1476.9 | 1466 | 1457.4 | 1.628 | 1.488 | 1.379
x2 = 0.9764 | 1011.6 | 1007 | 1002.3 | 1516 | 1505.6 | 1495.8 | 1.74 | 1.584 | 1.471

CCOC(=O)CC#N [ethyl cyanoacetate] + N#CCc1ccccc1
Conditions | mass density, 303.15 K [kg/m3] | mass density, 308.15 K [kg/m3] | mass density, 313.15 K [kg/m3] | speed of sound, 303.15 K [m/s] | speed of sound, 308.15 K [m/s] | speed of sound, 313.15 K [m/s] | viscosity, 303.15 K [mPa·s] | viscosity, 308.15 K [mPa·s] | viscosity, 313.15 K [mPa·s]
x2 = 0 | 1051.4 | 1046.5 | 1040.8 | 1396.9 | 1384.8 | 1367.7 | 2.186 | 1.962 | 1.77
x2 = 0.0223 | 1050.1 | – | 1039.8 | 1399.6 | – | 1370.4 | 2.179 | – | 1.764
x2 = 0.0233 | – | 1045.6 | – | – | 1386.5 | – | – | 1.955 | –
x2 = 0.1383 | 1044.4 | 1040.9 | 1034.8 | 1412.3 | 1397.7 | 1384.6 | 2.135 | 1.917 | 1.733
x2 = 0.2569 | 1038.8 | 1035.9 | 1029.9 | 1424.4 | 1410 | 1399.1 | 2.088 | 1.877 | 1.701
x2 = 0.3778 | 1033.4 | 1030.8 | 1025.3 | 1436 | 1423.7 | 1414.2 | 2.039 | 1.836 | 1.671
x2 = 0.4842 | 1028.9 | 1026.3 | 1021.1 | 1448 | 1436.3 | 1429.2 | 1.995 | 1.799 | 1.644
x2 = 0.5882 | 1024.6 | 1021.8 | 1016.8 | 1461.3 | 1450.4 | 1442 | 1.95 | 1.761 | 1.612
x2 = 0.7172 | 1019.4 | 1016.2 | 1011.4 | 1479.4 | 1468.5 | 1459.4 | 1.893 | 1.713 | 1.572
x2 = 0.8426 | 1014.6 | 1010.9 | 1005.8 | 1496.9 | 1487.6 | 1478 | 1.835 | 1.664 | 1.535
x2 = 0.9759 | 1009.7 | 1005.2 | 1000.4 | 1515.5 | 1508.7 | 1495.9 | 1.773 | 1.612 | 1.496
